Measured values as given in patent US5703109A, “Selective aromatase inhibiting compounds” (Oy; Orion-yhtyma, priority 1992, dated 1997).

Key:
human aromatase = molecular target: T1, human aromatase (Homo sapiens, UniProt P11511); test: Inhibition of human aromatase (3H2O release from 1,2[3H]-androstene-3,17-dione, human placenta microsomes); assay type: biochemical; conditions: human placental microsomes, 37° C., 40 min; read-out: AROMATASE IC-50
T1 construct: The enzyme preparation was used without further purification; from tissue; host or cells: human placenta, microsomal fraction (100000×g precipitate)
T1 sequence (P11511 1-503): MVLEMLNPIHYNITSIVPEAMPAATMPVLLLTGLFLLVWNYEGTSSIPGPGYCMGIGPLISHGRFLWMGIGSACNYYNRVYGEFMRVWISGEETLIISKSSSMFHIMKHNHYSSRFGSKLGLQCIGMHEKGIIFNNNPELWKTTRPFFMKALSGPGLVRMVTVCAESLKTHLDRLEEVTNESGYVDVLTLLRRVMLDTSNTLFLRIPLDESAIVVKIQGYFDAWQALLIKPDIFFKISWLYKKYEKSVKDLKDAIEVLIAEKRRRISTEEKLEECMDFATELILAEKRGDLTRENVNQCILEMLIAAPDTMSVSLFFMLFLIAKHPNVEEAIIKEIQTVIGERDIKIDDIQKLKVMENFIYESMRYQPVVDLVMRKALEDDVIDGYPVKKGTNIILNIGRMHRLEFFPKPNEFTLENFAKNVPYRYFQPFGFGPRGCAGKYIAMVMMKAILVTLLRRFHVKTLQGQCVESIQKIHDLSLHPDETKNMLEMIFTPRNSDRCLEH
Protocol: Human aromatase enzyme was used. The enzyme was prepared from human placenta, which is rich of the enzyme. Microsomal fraction (100000×g precipitate) was prepared by centrifugation. The enzyme preparation was used without further purification. Test compounds listed in Table 1 were added together with 100000 dpm of 1,2[^3 H]-androstene-3,17-dione and NADPH generating system. The concentrations of the test compounds were 0.001; 0.01; 0.1 and 1.0 mM. The incubation was carried out at 37° C. for 40 min. […] Radioactivity was counted by a liquid scintillation counter. Aromatase inhibition was evaluated by comparing the ^3 H2 O-radioactivity of inhibitor treated samples to controls containing no inhibitor. IC-50 values were calculated as concentrations which inhibited the enzyme activity 50%.

desmolase = test: Inhibition of desmolase (cholesterol side chain cleavage, SCC, activity); assay type: biochemical; conditions: mitochondrial fraction from human placenta or bovine adrenals, 37° C., 30 min; read-out: DESMOLASE IC-50
Protocol: Incubations were carried out in 1,5 ml Eppendorf plastic robes, and an Eppendoff shaker, centrifuge and incubator were used as a unit. […] Controls contained all the above substances but the enzyme preparation was inactivated prior to the incubation by the addition of 900 μl of methanol. The mitochondrial fraction (1 mg protein) from human placenta or bovine adrenals was used as a source of enzyme. After 30 min incubation at 37° C., the reaction was terminated by the addition of 900 μl of methanol; 1500 dpm of marker ^14 C-4-pregnenolone was added to each incubate and the robes were vigorously shaken. […] The column was washed with one ml of 75% methanol and then with 3 ml of 80% methanol The 80% methanol eluate was run into the counting vial and 10 ml of scintillation liquid was added. Radioactivity was counted using a double-label program on a liquid scintillation counter (LKB RackBeta).
In inhibition experiments, the substance (final concentration range from 1 to 1000 μM) was added into incubation mixture in a volume of 10-20 μl, usually as methanol or ethanol solution. The same volume of the solute was added into control incubation vial.

[1] = Acute toxicity, LD50, oral, in mice; assay type: in vivo; conditions: young adult female NMRI mice
Excerpt: […]. The administration of the test compound was oral.

Row | SMILES | IC50 (human aromatase) | IC50 (desmolase) | Acute toxicity (LD50 determination): tolerability of the highest dose tested ([1]; highest dose tested 400 mg/kg) | Acute toxicity (LD50 determination): adverse effects ([1]; up to 400 mg/kg)
1 | N#Cc1ccc(C(C(O)Cc2ccc(F)cc2)n2cncn2)cc1 (single isomer, unassigned) [Compound 4, 1-[1-(4-cyanophenyl)-3-(4-fluorophenyl)-2-hydroxypropyl]-1,2,4-triazole, diastereomer a + d] | 0.26 µM | > 1000 µM | well tolerated | No adverse effects were seen
2 | N#Cc1ccc(C(=CCCc2ccc(F)cc2)n2cncn2)cc1 (single isomer, unassigned; isomer b) [Compound 3, 1-[1-(4-cyanophenyl)-4-(4-fluorophenyl)-1-butenyl]-1,2,4-triazole, isomer b] | – | 300 µM | – | –
3 | N#Cc1ccc(C(=CCc2ccc(F)cc2)n2cncn2)cc1 (single isomer, unassigned; isomer b) [Compound 8, 1-[1-(4-cyanophenyl)-3-(4-fluorophenyl)-1-propenyl]-1,2,4-triazole, isomer b] | – | 165 µM | – | –
4 | N#Cc1ccc(C(CCCc2ccc(F)cc2)n2ccnc2)cc1 (centres unmarked) [Compound 1, 1-[1-(4-cyanophenyl)-4-(4-fluorophenyl)butyl]-1H-imidazole] | – | 17 µM | – | –
5 | N#Cc1ccc(C(C(=O)CCc2ccc(F)cc2)n2cncn2)cc1 (centres unmarked) [Compound 7, 1-[1-(-4-cyanophenyl)-4-(4-fluorophenyl)-2-oxobutyl]-1,2,4-triazole] | 0.9 µM | 172 µM | – | –

Further lines, with some results ahead:

Row | IC50 (human aromatase) | IC50 (desmolase) | SMILES | Acute toxicity (LD50 determination): tolerability of the highest dose tested ([1]; highest dose tested 400 mg/kg) | Acute toxicity (LD50 determination): adverse effects ([1]; up to 400 mg/kg)
6 | 0.18 µM | 49 µM | N#Cc1ccc(C(C(O)CCc2ccc(F)cc2)n2ccnc2)cc1 (single isomer, unassigned) [Compound 2, 1-[1-(4-cyanophenyl)-4-(4-fluorophenyl)-2-hydroxybutyl]-1H-imidazole, diastereomer a + d] | – | –
7 | 0.95 µM | > 1000 µM | N#Cc1ccc(C(C(O)CCc2ccc(F)cc2)n2cncn2)cc1 (single isomer, unassigned) [Compound 5, 1-[1-(4-cyanophenyl)-4-(4-fluorophenyl)-2-hydroxybutyl]-1,2,4-triazole, diastereomer a + d] | – | –
8 | 0.3 µM | 380 µM | N#Cc1ccc(C(CC(O)c2ccc(F)cc2)n2cncn2)cc1 (centres unmarked) [Compound 6, 1-[1-(4-cyanophenyl)-3-(4-fluorophenyl)-3-hydroxypropyl]-1,2,4-triazole] | – | –
9 | 0.28 µM | 300 µM | N#Cc1ccc(C(O)(CCc2ccc(F)cc2)c2cncs2)cc1 (centres unmarked) [Compound 9, 5-[1-(4-cyanophenyl)-3-(4-fluorophenyl)-1-hydroxypropyl]thiazole] | – | –
